Laboratory results reported in US7015196B1, “Basic monocyclic compounds having Nk2 antagonist action, processes for their preparation, and formulations containing them” (Menarini Ricerche S.p.A., priority 1999, dated 2006).

How the values were obtained:
[1] = molecular target: T1, NK2 receptor of tachykinins (Rattus norvegicus, UniProt P16610); test: in vitro functional test, rat urinary bladder (RUB); type: cell-based; conditions: for Kb: read-out: pA2 RUB (converted)
T1 construct: from tissue; host or cells: rat urinary bladder
T1 sequence (P16610 1-390): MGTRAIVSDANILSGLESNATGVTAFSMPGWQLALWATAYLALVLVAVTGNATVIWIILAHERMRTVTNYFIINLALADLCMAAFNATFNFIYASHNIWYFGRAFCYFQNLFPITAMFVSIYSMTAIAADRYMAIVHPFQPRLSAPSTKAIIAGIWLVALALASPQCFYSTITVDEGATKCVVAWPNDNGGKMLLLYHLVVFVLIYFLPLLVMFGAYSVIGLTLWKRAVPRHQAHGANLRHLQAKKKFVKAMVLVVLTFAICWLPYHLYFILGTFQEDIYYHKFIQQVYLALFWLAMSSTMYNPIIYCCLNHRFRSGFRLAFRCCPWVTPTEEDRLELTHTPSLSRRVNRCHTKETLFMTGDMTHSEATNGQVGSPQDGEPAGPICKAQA
Procedure: (§1) The compounds described in the present invention act as antagonists to the NK2 receptor of tachykinins. The biological activity was evaluated in three in vitro functional tests, using rabbit pulmonary artery (RPA), hamster trachea (HT) and rat urinary bladder (RUB), according to the methods described by C. A. Maggi et al., Br. J. Pharmacol., 1990, 100, 588; P. D'Orleans-Juste et al., Eur. J. Pharmacol., 1986, 125, 37; and C. A. Maggi et al., J. Pharmacol. Exp. Ther., 1988, 246, 308. The affinity of the compounds for the human NK2 receptor was evaluated in a binding test using membranes of Chinese hamster ovary (CHO) cells transfected with the NK2 receptor of human ileum and the radioligand [^125I]NKA (Amersham, […] 2000 Ci/mmol) at the concentration of 100 pM in competition studies. The substances under examination were tested in a concentration range between 0.01 nM and […]. At the end of incubation (30 min, 20° C.) the test specimens were filtered, and radioactivity was determined using a gamma-counter.
(§2) The data emerging from the functional studies were expressed as pA2 (O. Arunlakshana and H. O. Shild, Br. J. Pharmacol. Chemother., 1959, 14, 45), and the data emerging from the binding studies were expressed as pKi (log Ki calculated with the LIGAND program; P. J. Munson et al., Anal. Biochem., 1980, 107, 220).

human NK2 receptor = molecular target: T2, human NK2 receptor (Homo sapiens, UniProt P21452); test: binding test, [125I]NKA competition on membranes of CHO cells transfected with the NK2 receptor of human ileum; conditions: CHO cell membranes, [125I]NKA 100 pM, 30 min, 20° C.
T2 construct: expressed in transfected cells; host or cells: CHO cells (membranes)
T2 sequence (P21452 1-398): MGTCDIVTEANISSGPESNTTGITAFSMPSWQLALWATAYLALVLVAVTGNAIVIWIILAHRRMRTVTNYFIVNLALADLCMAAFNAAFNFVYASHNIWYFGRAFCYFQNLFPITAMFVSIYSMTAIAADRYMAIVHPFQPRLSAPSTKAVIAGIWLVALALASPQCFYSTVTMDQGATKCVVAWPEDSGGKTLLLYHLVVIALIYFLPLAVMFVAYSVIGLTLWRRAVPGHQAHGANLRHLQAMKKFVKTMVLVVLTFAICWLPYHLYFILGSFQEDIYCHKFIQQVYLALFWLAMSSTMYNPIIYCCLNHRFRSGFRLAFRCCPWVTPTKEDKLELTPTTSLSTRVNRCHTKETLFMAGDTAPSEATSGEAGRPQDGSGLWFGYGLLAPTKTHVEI
Procedure: as §1, §2

[2] = molecular target: T3, NK2 receptor of tachykinins (Oryctolagus cuniculus, UniProt P79218); test: in vitro functional test, rabbit pulmonary artery (RPA); type: cell-based; conditions: read-out: pA2 RPA (converted)
T3 construct: from tissue; host or cells: rabbit pulmonary artery
T3 sequence (P79218 1-384): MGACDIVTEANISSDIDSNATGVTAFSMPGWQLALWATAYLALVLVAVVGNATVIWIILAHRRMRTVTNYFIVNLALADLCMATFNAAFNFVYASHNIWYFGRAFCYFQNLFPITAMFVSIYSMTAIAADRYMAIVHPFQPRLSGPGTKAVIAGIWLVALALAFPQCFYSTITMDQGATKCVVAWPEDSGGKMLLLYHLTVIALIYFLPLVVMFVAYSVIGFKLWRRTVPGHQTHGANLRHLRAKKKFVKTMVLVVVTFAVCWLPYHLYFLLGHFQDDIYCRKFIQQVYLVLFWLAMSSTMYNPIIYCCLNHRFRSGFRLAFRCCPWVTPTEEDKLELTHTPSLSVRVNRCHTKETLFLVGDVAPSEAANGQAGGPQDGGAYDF
Procedure: as §1, §2

[3] = molecular target: T4, NK2 receptor of tachykinins (Mesocricetus auratus, UniProt P51144); test: in vitro functional test, hamster trachea (HT); type: cell-based; conditions: read-out: pA2 HT (converted)
T4 construct: from tissue; host or cells: hamster trachea
T4 sequence (P51144 1-384): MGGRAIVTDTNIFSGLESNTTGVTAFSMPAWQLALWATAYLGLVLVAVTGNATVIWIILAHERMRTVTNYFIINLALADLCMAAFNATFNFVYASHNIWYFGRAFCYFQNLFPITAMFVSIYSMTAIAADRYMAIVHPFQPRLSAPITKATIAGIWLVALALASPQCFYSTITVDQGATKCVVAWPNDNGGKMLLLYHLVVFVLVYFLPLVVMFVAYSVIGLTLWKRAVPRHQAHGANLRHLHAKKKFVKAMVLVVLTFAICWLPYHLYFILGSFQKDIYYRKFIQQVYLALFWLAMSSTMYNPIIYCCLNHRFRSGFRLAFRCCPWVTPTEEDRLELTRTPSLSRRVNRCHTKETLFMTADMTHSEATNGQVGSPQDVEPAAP
Procedure: as §1, §2

Row | SMILES | Kb [1] | Ki (human NK2 receptor) | pA2 RUB [1] | pKi (human NK2 receptor) | Kb [2] | Kb [3]
1 | O=C1CC(C(=O)N2CCC(N3CCCCC3)CC2)C(=O)NCC(Cc2ccccc2)NC(=O)C(Cc2ccccc2)NC(=O)C(Cc2c[nH]c3ccccc23)N1 (single isomer, unassigned) [Example 7, cyclo{-Suc[1-(R or S)-(1,4′)-bipiperidinyl-1′-carbonyl]-Trp-Phe[(R)—NH—CH(CH2—C6H5)—CH2NH]-}] | 0.794 nM | 0.0501 nM |  |  |  | 
2 | O=C1C[C@@H](NC(=O)CN2CCC(N3CCOCC3)CC2)C(=O)NC(Cc2c[nH]c3ccc(F)cc23)C(=O)NC(Cc2ccccc2)C(=O)N[C@H](Cc2ccccc2)CN1 (stereo partly drawn) [Example 4, cyclo{-Suc[1-(R)-2(4-morpholinyl-4-piperidinyl-1-yl-acetyl)amino]-Trp-(5-F)-Phe-[(R)-N H—CH(CH2—C6H5)—CH2NH]-}] |  |  | 9.7 | 10.1 |  | 
3 | O=C1C[C@@H](NC(=O)CN2CCC(N3CCOCC3)CC2)C(=O)NC[C@@H](Cc2ccccc2)NC(=O)[C@H](Cc2ccccc2)NC(=O)[C@H](Cc2c[nH]c3ccccc23)N1 [Example 2, cyclo{-Suc[1-(R)-2(4-morpholin-4-yl-piperidin-1-yl)-acetyl amino]-Trp-Phe-[(R)—NH—CH(CH2—C6H5)—CH2NH]-}] | 0.158 nM | 0.2 nM |  |  |  | 
4 | O=C1C[C@@H](NC(=O)CN2CCC(N3CCCCC3)CC2)C(=O)NC[C@@H](Cc2ccccc2)NC(=O)[C@H](Cc2ccccc2)NC(=O)[C@H](Cc2c[nH]c3ccccc23)N1 [Example 1, cyclo{-Suc[1-(R)-2(1,4′)-bipiperidinyl-1′-yl-acetyl amino]-Trp-Phe-[(R)—NH—CH(CH2—C6H5)—CH2NH]-}] | 0.631 nM |  |  | 9.4 | 2 nM | 1.58 nM
5 | O=C1C[C@@H](NC(=O)CN2CCC(N3CCCCC3)CC2)C(=O)NC(Cc2c[nH]c3ccccc23)C(=O)NC(Cc2ccc(F)cc2)C(=O)N[C@H](Cc2ccccc2)CN1 (stereo partly drawn) [Example 3, cyclo{-Suc[1-(R)-2(1,4′)-bipiperidinyl-1′-yl-acetyl amino]-Trp-Phe-(4-F)-[(R)—NH—CH(CH2—C6H5)—CH2NH]-}] |  |  | 9.3 | 9.6 |  | 
6 | O=C1CC(C(=O)N2CCC(N3CCCCC3)CC2)C(=O)NCC(Cc2ccccc2)NC(=O)C(Cc2ccccc2)NC(=O)C(Cc2c[nH]c3ccccc23)N1 (single isomer, unassigned) [Example 8, cyclo{-Suc[1-(S or R)-(1,4′)-bipiperidinyl-1′-carbonyl]-Trp-Phe[(R)—NH—CH(CH2—C6H5)—CH2NH]-}] |  | 0.316 nM |  |  |  | 
